IC50 data for four compounds are collected here from patent publication US5744479A, “Thienopyridine compounds which have useful pharmaceutical activity” (Takeda Chemical Industries, Ltd., priority 1995, dated 1998).

Structures can show the parent of a compound that is named as a salt.

This test concerns the target T1, human GnRH receptor (Homo sapiens, UniProt P30968).
T1 construct: expressed in transfected cells; host or cells: CHO (Chinese Hamster Ovary) cells, membrane fraction
T1 sequence (P30968 1-328): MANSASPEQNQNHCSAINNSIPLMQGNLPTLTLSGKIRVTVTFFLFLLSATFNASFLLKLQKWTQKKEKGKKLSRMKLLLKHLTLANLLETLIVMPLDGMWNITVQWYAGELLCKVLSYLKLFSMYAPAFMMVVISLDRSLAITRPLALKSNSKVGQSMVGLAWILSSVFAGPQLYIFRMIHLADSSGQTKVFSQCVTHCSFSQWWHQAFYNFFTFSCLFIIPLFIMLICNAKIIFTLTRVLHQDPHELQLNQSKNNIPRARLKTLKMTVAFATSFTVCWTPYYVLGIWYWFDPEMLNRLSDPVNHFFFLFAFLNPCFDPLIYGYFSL
Put plainly: Inhibition of ^125 I-leuprorelin binding to membrane fraction of CHO cells expressing human GnRH receptors. The following applies: CHO cell membrane fraction, 25° C., 60 minutes, concentration of PMB=50% by Hill plot, read-out: IC50 value human GnRH receptor (^125 I-leuprorelin binding inhibitory rate).
Regarding `CCOC(=O)COc1cn(Cc2c(F)cccc2F)c2sc(-c3ccc(NC(=O)C(C)C)cc3)c(CN(C)Cc3ccccc3)c2c1=O` [Example 12, 4,7-dihydro-2-(4-isobutyrylaminophenyl)-3-(N-benzyl-N-methylaminomethyl)-5-ethoxycarbonylmethoxy-7-(2,6-difluorobenzyl)-4-oxothieno[2,3-b]pyridine], the half-inhibitory concentration (IC50) was determined as 3 nM.

Turning to `CC(C)Oc1cn(Cc2c(F)cccc2F)c2sc(-c3ccc(NC(=O)C(C)C)cc3)c(CN(C)Cc3ccccc3)c2c1=O` [Example 8(4), 4,7-dihydro-2-(4-isobutyrylaminophenyl)-3-(N-benzyl-N-methylaminomethyl)-5-isopropoxy-7-(2,6-difluorobenzyl)-4-oxothieno[2,3-b]pyridine], the IC50 turned out to be 1 nM.

On to `CC(C)C(=O)Nc1ccc(-c2sc3c(c2CN(C)Cc2ccccc2)c(=O)c(OS(=O)(=O)C(C)C)cn3Cc2c(F)cccc2F)cc1` [Example 10, 4,7-dihydro-2-(4-isobutyrylaminophenyl)-3-(N-benzyl-N-methylaminomethyl)-5-isopropylsulfonyloxy-7-(2,6-difluorobenzyl)-4-oxothieno[2,3-b]pyridine hydrochloride], for which the 50% inhibitory concentration (IC50) came out at 0.3 nM.

As for `CC(C)C(=O)Nc1ccc(-c2sc3c(c2CN(C)Cc2ccccc2)c(=O)c(OC(=O)C(C)C)cn3Cc2c(F)cccc2F)cc1` [Example 11, 4,7-dihydro-2-(4-isobutyrylaminophenyl)-3-(N-benzyl-N-methylaminomethyl)-5-isobutyryloxy-7-(2,6-difluorobenzyl)-4-oxothieno[2,3-b]pyridine hydrochloride], the IC50 amounted to 2 nM.

One may read the IC50 as the point on the concentration scale where inhibition reaches its midpoint.
